From patent US10703764B2, “Benzopiperazine compositions as BET bromodomain inhibitors” (FORMA Therapeutics, Inc., priority 2013, dated 2020)
pIC50: −log10 of the molar value.

How the values were obtained:
BRD4 BD2 = biological target: T1, BRD4 BD2 (Homo sapiens, UniProt O60885); test: AlphaScreen binding assay, BRD4 Bromodomain 2
T1 construct: made in house
Summary of the method: (§1)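 Compound dilution series were mixed with His-tagged BRD4 bromodomain and biotinylated tetra-acetylated H4 (1-21) peptide at pH 7.3 (BD1 and peptide at 50 nM, BD2 and peptide at 100 nM). Donor and acceptor beads were then added, and plates were equilibrated at least 1 h before reading. IC50 values were fitted with a four-parameter logistic model.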

MV4-11 cells = test: Oncology cell growth assay (3-day proliferation, CellTiter-Glo); type: cell-based; conditions: Homo sapiens, MV4-11, 72 h, AML cell line MV4-11, 72 hours, compounds grouped by IC50 range, read-out: MV4-11 IC50 (inhibition of proliferation, gIC50)
Summary of the method: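 72 h, 37° C, 5% CO2; MV4-11, 3000 cells/well, RPMI 1640 + 10% FBS. Compound final 10, 3.3, 1.1, 0.37, 0.12, 0.041, 0.013, 0.0045 μM. Readout CellTiter-Glo luminescence; gIC50 by 4-parameter logistic fit, normalised to DMSO and no-cell background.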

BRD4 BD1 = biological target: T2, BRD4 BD1 (Homo sapiens, UniProt O60885); test: AlphaScreen binding assay, BRD4 Bromodomain 1
T2 construct: made in house
Summary of the method: as §1

| Compound | pIC50 (BRD4 BD2) | pIC50 (MV4-11 cells) | pIC50 (BRD4 BD1) |
| --- | --- | --- | --- |
| CC(=O)N1c2ccc(-c3ccc(S(C)(=O)=O)cc3)cc2N(C(=O)OC2CCCCC2)C[C@@H]1C [Example I-238] | > 7.30 | 6.30 to 7.00 | 6.00 to 7.00 |
| CC(=O)N1c2ccc(-c3ccc(S(C)(=O)=O)cc3)cc2N(C(=O)Oc2ccc3ccccc3c2)C[C@@H]1C [Example I-239] | > 7.30 | 6.30 to 7.00 | 5.00 to 6.00 |
| CC(=O)N1c2ccc(-c3ccc(S(C)(=O)=O)cc3)cc2N(C(=O)C2CCC2)C[C@@H]1C [Example I-245] | 6.30 to 7.30 | < 6.30 | 5.00 to 6.00 |
| CC(=O)N1c2ccc(-c3ccc(S(C)(=O)=O)cc3)cc2N(C(=O)OCC(C)C)C[C@@H]1C [Example I-250] | 6.30 to 7.30 | 6.30 to 7.00 | 6.00 to 7.00 |
| CC(=O)N1c2ccc(-c3ccc(S(C)(=O)=O)cc3)cc2N(C(=O)Oc2cccc3ccccc23)C[C@@H]1C [Example I-251] | 6.30 to 7.30 | < 6.30 | 5.00 to 6.00 |
| CCCOC(=O)N1C[C@H](C)N(C(C)=O)c2ccc(-c3ccc(S(C)(=O)=O)cc3)cc21 [Example I-252] | 6.30 to 7.30 | 6.30 to 7.00 | 6.00 to 7.00 |
| CC(=O)N1c2ccc(-c3cnn(C4CC4)c3)cc2N(C(=O)Oc2ccccc2)C[C@@H]1C [Example I-256] | > 7.30 | > 7.00 | 6.00 to 7.00 |
| CC(=O)N1c2ccc(-c3cnn(C4CC4)c3)cc2N(C(=O)Oc2ccccc2Cl)C[C@@H]1C [Example I-257] | > 7.30 | 6.30 to 7.00 | 6.00 to 7.00 |
| COc1ccccc1OC(=O)N1C[C@H](C)N(C(C)=O)c2ccc(-c3cnn(C4CC4)c3)cc21 [Example I-258] | > 7.30 | > 7.00 | 6.00 to 7.00 |
| CC(=O)N1c2ccc(-c3cnn(C4CC4)c3)cc2N(C(=O)Oc2cccc(C(F)(F)F)c2)C[C@@H]1C [Example I-259] | > 7.30 | 6.30 to 7.00 | 5.00 to 6.00 |
| CC(=O)N1c2ccc(-c3cnn(C4CC4)c3)cc2N(C(=O)Oc2ccc(Cl)cc2)C[C@@H]1C [Example I-260] | > 7.30 | 6.30 to 7.00 | > 7.00 |
| CC(=O)N1c2ccc(-c3cnn(C4CC4)c3)cc2N(C(=O)Oc2ccc(F)cc2)C[C@@H]1C [Example I-261] | > 7.30 | 6.30 to 7.00 | 6.00 to 7.00 |
| COC(=O)c1ccc(OC(=O)N2C[C@H](C)N(C(C)=O)c3ccc(-c4cnn(C5CC5)c4)cc32)cc1 [Example I-262] | > 7.30 | 6.30 to 7.00 | 6.00 to 7.00 |
| COc1ccc(OC(=O)N2C[C@H](C)N(C(C)=O)c3ccc(-c4cnn(C5CC5)c4)cc32)cc1 [Example I-263] | > 7.30 | 6.30 to 7.00 | 6.00 to 7.00 |
| CC(=O)N1c2ccc(-c3cnn(C4CC4)c3)cc2N(C(=O)Oc2ccc(C)cc2)C[C@@H]1C [Example I-264] | > 7.30 | > 7.00 | 6.00 to 7.00 |
| CC(=O)N1c2ccc(-c3cnn(C4CC4)c3)cc2N(C(=O)Oc2cccc3ccccc23)C[C@@H]1C [Example I-265] | > 7.30 | < 6.30 | 5.00 to 6.00 |
| CC(=O)N1c2ccc(-c3cnn(C4CC4)c3)cc2N(C(=O)Oc2ccc(F)c(C)c2)C[C@@H]1C [Example I-266] | > 7.30 | 6.30 to 7.00 | 6.00 to 7.00 |
| CC(=O)N1c2ccc(-c3cnn(C4CC4)c3)cc2N(C(=O)Oc2ccc(Cl)cc2C)C[C@@H]1C [Example I-267] | > 7.30 | 6.30 to 7.00 | 6.00 to 7.00 |
| CC(=O)N1c2ccc(-c3ccc(S(=O)(=O)NC4CC4)cc3)cc2N(C(=O)c2ccco2)C[C@@H]1C [Example I-268] | > 7.30 | > 7.00 | 6.00 to 7.00 |
| CCCn1cc(-c2ccc3c(c2)N(C(=O)c2ccco2)C[C@H](C)N3C(C)=O)cn1 [Example I-269] | > 7.30 | 6.30 to 7.00 | 6.00 to 7.00 |
| CC(=O)N1c2ccc(-c3ccc(S(=O)(=O)NC(C)C)cc3)cc2N(C(=O)c2ccco2)C[C@@H]1C [Example I-274] | > 7.30 | 6.30 to 7.00 | 5.00 to 6.00 |
| CC(=O)N1c2ccc(-c3ccc(S(=O)(=O)N4CCOCC4)cc3)cc2N(C(=O)c2ccco2)C[C@@H]1C [Example I-275] | 6.30 to 7.30 | 6.30 to 7.00 | 5.00 to 6.00 |
| CC(=O)N1c2ccc(-c3ccc(OCCN(C)C)cc3)cc2N(C(=O)c2ccco2)C[C@@H]1C [Example I-276] | > 7.30 | > 7.00 | 5.00 to 6.00 |
| CC(=O)N1c2ccc(-c3ccc(S(=O)(=O)N(C)C)cc3)cc2N(C(=O)c2ccco2)C[C@@H]1C [Example I-277] | > 7.30 | 6.30 to 7.00 | 5.00 to 6.00 |
| CC(=O)N1c2ccc(-c3ccc(S(=O)(=O)N4CCN(C)CC4)cc3)cc2N(C(=O)c2ccco2)C[C@@H]1C [Example I-278] | > 7.30 | 6.30 to 7.00 | 5.00 to 6.00 |

| Compound | pIC50 (BRD4 BD2) | pIC50 (MV4-11 cells) | pIC50 (BRD4 BD1) |
| --- | --- | --- | --- |
| CC(=O)N1c2ccc(-c3ccc(NS(C)(=O)=O)cc3)cc2N(C(=O)c2ccco2)C[C@@H]1C [Example I-279] | > 7.30 | > 7.00 | 6.00 to 7.00 |
| CC(=O)N1c2ccc(-c3ccc(NC(N)=O)cc3)cc2N(C(=O)c2ccco2)C[C@@H]1C [Example I-280] | > 7.30 | 6.30 to 7.00 | 5.00 to 6.00 |
| CC(=O)N1c2ccc(-c3ccc(S(N)(=O)=O)cc3)cc2N(C(=O)c2ccco2)C[C@@H]1C [Example I-281] | > 7.30 | 6.30 to 7.00 | 5.00 to 6.00 |
| CC(=O)N1c2ccc(-c3ccc(C(=O)N4CCCC4)cc3)cc2N(C(=O)c2ccco2)C[C@@H]1C [Example I-282] | > 7.30 | 6.30 to 7.00 | 5.00 to 6.00 |
| CC(=O)N1c2ccc(-c3ccc(C(=O)N4CCOCC4)cc3)cc2N(C(=O)c2ccco2)C[C@@H]1C [Example I-283] | > 7.30 | 6.30 to 7.00 | 5.00 to 6.00 |
| CC(=O)N1c2ccc(-c3ccc(NC(=O)N(C)C)cc3)cc2N(C(=O)c2ccco2)C[C@@H]1C [Example I-284] | > 7.30 | 6.30 to 7.00 | 5.00 to 6.00 |
| CC(=O)N1c2ccc(-c3ccc(NC(=O)N4CCOCC4)cc3)cc2N(C(=O)c2ccco2)C[C@@H]1C [Example I-285] | > 7.30 | 6.30 to 7.00 | 5.00 to 6.00 |
| CC(=O)N1c2ccc(-c3ccc(S(=O)(=O)N4CCCC4)cc3)cc2N(C(=O)c2ccco2)C[C@@H]1C [Example I-286] | < 6.30 | > 7.00 | 6.00 to 7.00 |
| CC(=O)N1c2ccc(-c3ccc(NS(=O)(=O)C4CC4)cc3)cc2N(C(=O)c2ccco2)C[C@@H]1C [Example I-287] | > 7.30 | > 7.00 | 6.00 to 7.00 |
| CC(=O)N1c2ccc(-c3ccc(S(=O)(=O)C(C)C)cc3)cc2N(C(=O)c2ccco2)C[C@@H]1C [Example I-288] | > 7.30 | 6.30 to 7.00 | 5.00 to 6.00 |
| CC(=O)N1c2ccc(-c3ccc(S(=O)(=O)N4CCC4)cc3)cc2N(C(=O)c2ccco2)C[C@@H]1C [Example I-289] | > 7.30 | 6.30 to 7.00 | 6.00 to 7.00 |
| CC(=O)N1c2ccc(-c3ccc(C(=O)NCCO)cc3)cc2N(C(=O)c2ccco2)C[C@@H]1C [Example I-290] | > 7.30 | 6.30 to 7.00 | 5.00 to 6.00 |
| CC(=O)N1c2ccc(-c3ccc(S(=O)(=O)C4CC4)cc3)cc2N(C(=O)c2ccco2)C[C@@H]1C [Example I-291] | > 7.30 | 6.30 to 7.00 | 6.00 to 7.00 |
| CC(=O)N1c2ccc(-c3ccc(C(=O)NC4CC4)cc3)cc2N(C(=O)c2ccco2)C[C@@H]1C [Example I-292] | < 6.30 | 6.30 to 7.00 | 5.00 to 6.00 |
| CC(=O)N1c2ccc(-c3ccc(S(=O)(=O)NCCO)cc3)cc2N(C(=O)c2ccco2)C[C@@H]1C [Example I-293] | > 7.30 | 6.30 to 7.00 | 5.00 to 6.00 |
| CC(=O)N1c2ccc(-c3ccc(S(C)(=O)=O)cc3)cc2N(C(=O)OC(C)C)C[C@@H]1C [Example I-294] | > 7.30 | 6.30 to 7.00 | 6.00 to 7.00 |
| CC(=O)N1c2ccc(-c3ccc(N)nc3)cc2N(C(=O)c2ccco2)C[C@@H]1C [Example I-295] | > 7.30 | 6.30 to 7.00 | 5.00 to 6.00 |
| CC(=O)N1c2ccc(-c3ccc4c(c3)CCN4S(C)(=O)=O)cc2N(C(=O)c2ccco2)C[C@@H]1C [Example I-299] | 6.30 to 7.30 | 6.30 to 7.00 | 6.00 to 7.00 |
| CC(=O)N1c2ccc(-c3cnn(CCS(C)(=O)=O)c3)cc2N(C(=O)OC(C)C)C[C@@H]1C [Example I-303] | 6.30 to 7.30 | 6.30 to 7.00 | > 7.00 |
| CC(=O)N1c2ccc(-c3cnn(CC(N)=O)c3)cc2N(C(=O)OC(C)C)C[C@@H]1C [Example I-304] | 6.30 to 7.30 | 6.30 to 7.00 | 6.00 to 7.00 |
| CC(=O)N1c2ccc(-c3cnn(CC(=O)N(C)C)c3)cc2N(C(=O)OC(C)C)C[C@@H]1C [Example I-305] | 6.30 to 7.30 | 6.30 to 7.00 | 6.00 to 7.00 |
| CC(=O)N1c2ccc(-c3cnn(CCN4CCOCC4)c3)cc2N(C(=O)OC(C)C)C[C@@H]1C [Example I-306] | 6.30 to 7.30 | 6.30 to 7.00 | 6.00 to 7.00 |
| CC(=O)N1c2ccc(-c3cnn(C4CCOCC4)c3)cc2N(C(=O)OC(C)C)C[C@@H]1C [Example I-307] | 6.30 to 7.30 | 6.30 to 7.00 | 6.00 to 7.00 |
| CC(=O)N1c2ccc(-c3cnn(CC4CC4)c3)cc2N(C(=O)OC(C)C)C[C@@H]1C [Example I-308] | 6.30 to 7.30 | 6.30 to 7.00 | 6.00 to 7.00 |
